Assay results from ChEMBL document CHEMBL1201862, “PubChem BioAssay data set” (2004).
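Briefly, cells in 96-well plates were exposed to five compound concentrations for 48 h, and endpoints were estimated by linear interpolation. Abbreviation: GI50, concentration required for 50% inhibition of growth.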 Activity calls are given as the source filed them. Rule as the data show it: active = GI50 up to about 1.1 µM and inactive = higher.

How the values were obtained:
Test in all cases: DTP human tumour cell line panel, 48 h
SF-268 = system: SF-268
KM12 = system: KM12
SF-539 = system: SF-539
SNB-75 = system: SNB-75
HCC 2998 = system: HCC 2998
SW-620 = system: SW-620
RPMI-8226 = system: RPMI-8226
HL-60 = system: HL-60
CCRF-CEM = system: CCRF-CEM
LOX IMVI = system: LOX IMVI
NCI-H522 = system: NCI-H522
HCT-116 = system: HCT-116
NCI-H460 = system: NCI-H460
SK-MEL-2 = system: SK-MEL-2
HT-29 = system: HT-29
SR = system: SR
HOP-92 = system: HOP-92
SK-OV-3 = system: SK-OV-3
A549 = system: A549
PC-3 = system: PC-3

| Structure (SMILES) | GI50 (SF-268) | GI50 (KM12) | GI50 (SF-539) | GI50 (SNB-75) | GI50 (HCC 2998) | GI50 (SW-620) | GI50 (RPMI-8226) | GI50 (HL-60) | GI50 (CCRF-CEM) | GI50 (LOX IMVI) | GI50 (NCI-H522) | GI50 (HCT-116) | GI50 (NCI-H460) | GI50 (SK-MEL-2) | GI50 (HT-29) | GI50 (SR) | GI50 (HOP-92) | GI50 (SK-OV-3) | GI50 (A549) | GI50 (PC-3) |
| --- | --- | --- | --- | --- | --- | --- | --- | --- | --- | --- | --- | --- | --- | --- | --- | --- | --- | --- | --- | --- |
| CCCCC1(C(NC(=O)c2ccccc2Cl)c2ccncc2)C(=O)N(c2ccccc2)N(c2ccccc2)C1=O (configuration not stated) | > 100 µM (inactive) | 81.3 µM (inactive) | 88.1 µM (inactive) | 12.4 µM (inactive) | 57.5 µM (inactive) | 78.7 µM (inactive) | 21.2 µM (inactive) | 17.6 µM (inactive) | 27.9 µM (inactive) | 56.9 µM (inactive) | 31.6 µM (inactive) | 23.9 µM (inactive) | 32.8 µM (inactive) | 50.9 µM (inactive) | 41.6 µM (inactive) | 55.1 µM (inactive) | 39.6 µM (inactive) | 74.1 µM (inactive) | 28.4 µM (inactive) |  |
| CO[C@H]1CC[C@]2(C)C3=CC[C@@]4(C)C(CC[C@@H]4C(C)CC[C@@H](C)C(C)C)C(=CCC2C1)O3 (some centres not stated) | > 25 µM (inactive) | > 25 µM (inactive) | > 25 µM (inactive) | > 25 µM (inactive) | > 25 µM (inactive) | > 25 µM (inactive) | > 25 µM (inactive) | > 25 µM (inactive) | > 25 µM (inactive) | > 25 µM (inactive) | > 25 µM (inactive) | > 25 µM (inactive) | > 25 µM (inactive) | > 25 µM (inactive) | > 25 µM (inactive) | > 25 µM (inactive) | > 22.7 µM (inactive) | > 25 µM (inactive) | > 25 µM (inactive) |  |
| [O-][S+]1Cc2ccccc2CSS1 (configuration not stated) | 23.9 µM (inactive) | 16.8 µM (inactive) | 14.5 µM (inactive) | 19.6 µM (inactive) | 26.1 µM (inactive) | 13.6 µM (inactive) | 16.3 µM (inactive) | 3.44 µM (inactive) |  | 3.96 µM (inactive) | 6.28 µM (inactive) | 15 µM (inactive) | 16.8 µM (inactive) |  | 14.4 µM (inactive) | 13.9 µM (inactive) | 15.6 µM (inactive) | 44.3 µM (inactive) | 19 µM (inactive) |  |
| N#CC(/C(=N/NC(N)=S)C(=O)Nc1cccc(Cl)c1)c1ccccc1 (configuration not stated) | > 100 µM (inactive) | > 100 µM (inactive) | > 100 µM (inactive) | 38.8 µM (inactive) | > 100 µM (inactive) | > 100 µM (inactive) | > 100 µM (inactive) | > 100 µM (inactive) | > 100 µM (inactive) |  | > 100 µM (inactive) | > 100 µM (inactive) | > 100 µM (inactive) | > 100 µM (inactive) | > 100 µM (inactive) | > 100 µM (inactive) | > 100 µM (inactive) | > 100 µM (inactive) | > 100 µM (inactive) |  |
| COc1cccc(/C=N/C23CC4CC(CC(C4)C2)C3)c1 | > 100 µM (inactive) | > 100 µM (inactive) | > 100 µM (inactive) | 55.5 µM (inactive) | > 100 µM (inactive) | > 100 µM (inactive) | > 100 µM (inactive) | > 100 µM (inactive) | > 100 µM (inactive) | > 100 µM (inactive) | > 100 µM (inactive) | > 100 µM (inactive) | > 100 µM (inactive) | > 100 µM (inactive) | > 100 µM (inactive) | > 100 µM (inactive) | > 100 µM (inactive) | > 100 µM (inactive) | > 100 µM (inactive) |  |
| O=C1C(=Cc2ccc(O)cc2)N=C(c2ccccc2)N1n1c(-c2ccccc2)nc2ccccc2c1=O | > 100 µM (inactive) | > 100 µM (inactive) | > 100 µM (inactive) | > 100 µM (inactive) | > 100 µM (inactive) | > 100 µM (inactive) | 46.1 µM (inactive) | 40.6 µM (inactive) | 32 µM (inactive) | > 100 µM (inactive) | 50 µM (inactive) | > 100 µM (inactive) |  |  | 72.8 µM (inactive) |  |  | > 100 µM (inactive) | > 100 µM (inactive) | 34.8 µM (inactive) |
| CCC1CCC2CCCC(C)N12 (configuration not stated) | > 100 µM (inactive) | > 100 µM (inactive) | > 100 µM (inactive) | > 100 µM (inactive) | > 100 µM (inactive) | > 100 µM (inactive) | > 100 µM (inactive) | > 100 µM (inactive) | > 100 µM (inactive) |  | > 100 µM (inactive) | > 100 µM (inactive) |  | > 100 µM (inactive) |  | > 100 µM (inactive) | > 100 µM (inactive) |  | > 100 µM (inactive) |  |
| CC(C)C1C(=O)NC(CO)Cc2c[nH]c3c(C(c4c[nH]c5ccccc45)C(O)CO)ccc(c23)N1C (configuration not stated) | > 100 µM (inactive) | > 100 µM (inactive) | > 100 µM (inactive) | 84.9 µM (inactive) | 3.38 µM (inactive) | 74.8 µM (inactive) | > 100 µM (inactive) | 5.11 µM (inactive) | 30.1 µM (inactive) | > 100 µM (inactive) | > 100 µM (inactive) | > 100 µM (inactive) | 5.02 µM (inactive) | > 100 µM (inactive) | > 100 µM (inactive) | 21.7 µM (inactive) | 0.612 µM (active) | > 100 µM (inactive) | 23.5 µM (inactive) |  |
